Experimental data reported in patent EP3454861B1, “BENZOXAZINE OR QUINAZOLINE DERIVATIVES FOR USE IN THE TREATMENT OF ALZHEIMER'S DISEASE” (Biocodex, priority 2016, dated 2017).

Test system: protéine Tau
Test: Tau hyperphosphorylation in cortical neurons after Aβ1-42
Format: cell-based, rats
Settings: Rattus norvegicus, Cortical neurone, Aβ1-42 2,5 µM, 16 h (Aβ1-42 alone 183%), read-out: hyperphosphorylation de Tau
Method: Des neurones corticaux de rats sont mis en culture comme dans la méthode décrite par Singer (1999) J. Neurosci. 19:2455-2463. Des rats femelles enceintes de 15 jours sont tuées par dislocation des cervicales (Rats Wistar, Janvier) et le fœtus est retiré de l'utérus. Les cortex sont prélevés et placés dans un milieu glacé de Leibovitz (L15, Panbiotech, Réf : P04-27055, lot : 9310614) contenant 2% de pénicilline (10 000 U/ml) et de streptomycine (10 mg/ml) (PS, Panbiotec, Réf : P06-07100, lot : 48101114) et 1% de sérum-albumine bovine (BSA, Panbiotech, Réf : P06-1391100, lot : H140603). Les cortex sont dissociés par trypsination (0,05% Panbiotech, Réf : P10-023100, lot : 5890314) pendant 20 minutes à 37°C. La réaction est stoppée par addition d'un milieu Eagle modifié de Dulbecco (DMEM, Panbiotech, réf P04-03600, lot : 9670913) contenant de la DNase I grade Il (0,1 mg/ml Panbiotech, Réf : P60-37780100, lot : H140508) et 10 % de sérum de veau fœtal (FCS, Invitrogen, Réf : 10270 à 098, lot : 41Q4120K). Les cellules sont dissociées mécaniquement par 3 passages à travers une pipette de 10 ml. Les cellules sont ensuite centrifugées à 515 g pendant 10 minutes à 4°C. Le surnageant est éliminé et les cellules sont remises en suspension dans un milieu de culture Neurobasal (Nb, Invitrogen, Réf : 21103, lot : 1608692) supplémenté avec 2% de B27 (Invitrogen, Réf : 17504, lot : 1589889), 2 mM de L-glutamine (Panbiotech, Réf : P04-80100, lot : 6620314), 2% de la solution PS et 10 ng/ml de facteur neurotrophique dérivé du cerveau (BDNF, PanBiotech, Réf : CB-1115002, lot : 4810114). Les cellules sont ensemencées à une densité de 30 000 cellules/puits dans des plaques de 96 puits pré-enduites de poly-L-lysine (10 ng/ml, Greiner Réf : 655930, lot : E14021HD) et cultivées à 37 °C dans une atmosphère humidifiée avec 95% d'air et 5% de CO2 pour l'évaluation de la survie des neurones (analyse de MAP2 par immuno-coloration) (6 puits/condition, 1 culture).
La préparation du peptide amyloïde β1-42 (Aβ1-42) est réalisée en suivant la procédure par Callizot et al. (2013) Neurosci. Res. 91:706-16. […]

## CCNC1=Nc2ccc(Cl)cc2C(C)(c2ccccc2)O1 (stereo not drawn) [Etifoxine, chlorhydratede 6-chloro-2-éthylamino-4-méthyl-4-phényl-4H-[3,1]benzoxazine]
étifoxine 1 µM
  activity at 1 µM: 114%
étifoxine 3 µM
  activity at 3 µM: 104%
étifoxine 10 µM
  activity at 10 µM: 97.4%
